We go through 2 compounds from ChEMBL document CHEMBL4396971, “Discovery of potent and orally bioavailable indazole-based glucagon receptor antagonists for the treatment of type 2 diabetes” (Bioorg Med Chem Lett, 2019).

One may read the half-life as how long it takes for the measured level to halve. High values mean slow decline, low ones rapid decline. The AUC(0-t) is exposure summed from dosing to a finite time, without extrapolation to infinity. Broadly, the IC50 is the concentration that inhibits the measured activity by half. Low values mean greater potency in that assay, high ones weaker potency in that assay. One may read the Cmax as the maximum level reached in the sampled fluid or tissue. Usually Ki stands for the equilibrium dissociation constant of an inhibitor or competing ligand from its target.

Activity calls are given as the source filed them. The rule behind the calls is not given here.

One data set addresses Glucagon receptor (Homo sapiens, UniProt P47871). Description: Potency index, ratio of Ki of 3-(4-((1R)-1-(4-methoxy-5-(2-methyl-4-(trifluoromethyl)phenyl)-1H-indazol-1-yl)-3-methylbutyl)benzamido)propanoic acid to Ki of compound for human full length GCGR transfected in HEK293 cells assessed as reduction in glucagon-induced cAMP response by LANCE TR-FRET assay. The data set is classed as functional, cell-based. Background: Time-resolved FRET reads energy transfer from a long-lived donor to a nearby acceptor.

A short description of data set [1]: Stability in human liver microsomes assessed as parent compound remaining at 1 uM incubated for 10 mins. The note with it: read-out: Stability. The data set is classed as ADME, Microsome. For orientation: Microsomes from liver hold many membrane-bound enzymes, among them those of drug oxidation.
Data set [2] can be described thus: Stability in rat liver microsomes assessed as parent compound remaining at 1 uM incubated for 10 mins. The data set is classed as ADME, Microsome. The note with it: read-out: Stability.
Data set [3] can be described thus: Stability in dog liver microsomes assessed as parent compound remaining at 1 uM incubated for 10 mins. The data set is classed as ADME, Canis lupus familiaris, Microsome. The note with it: liver microsomes, read-out: Stability.
Data set [4] in a line: Stability in mouse liver microsomes assessed as parent compound remaining at 1 uM incubated for 10 mins. The data set is classed as ADME, Microsome. The note with it: liver microsomes, read-out: Stability.
Data set [5] can be described thus: Half life in C57 mouse at 20 mg/kg, po. The data set is classed as ADME, organism-based. The conditions noted are these: in vivo.
A short description of data set [6]: Protein binding in human plasma at 1 uM. The data set is classed as ADME, cell-free. The conditions noted are these: read-out: PPB.
Data set [7] has as its system Canis familiaris. In words: Antidiabetic activity in Beagle dog assessed as reduction in blood glucose level at 10 mg/kg, po administered via gavage as single dose 90 mins prior to glucagon challenge measured up to 60 mins post glucagon challenge by glucometer analysis. The data set is classed as functional, organism-based. The conditions noted are these: Canis lupus familiaris.

The nature of data set [8]: AUClast in Sprague-Dawley rat at 2 mg/kg, iv or 10 mg/kg, po. The data set is classed as ADME, organism-based. The conditions noted are these: in vivo.
Another data set concerns the target T1, Cytochrome P450 1A2 (Homo sapiens, UniProt P05177).
T1 sequence (P05177 whole entry): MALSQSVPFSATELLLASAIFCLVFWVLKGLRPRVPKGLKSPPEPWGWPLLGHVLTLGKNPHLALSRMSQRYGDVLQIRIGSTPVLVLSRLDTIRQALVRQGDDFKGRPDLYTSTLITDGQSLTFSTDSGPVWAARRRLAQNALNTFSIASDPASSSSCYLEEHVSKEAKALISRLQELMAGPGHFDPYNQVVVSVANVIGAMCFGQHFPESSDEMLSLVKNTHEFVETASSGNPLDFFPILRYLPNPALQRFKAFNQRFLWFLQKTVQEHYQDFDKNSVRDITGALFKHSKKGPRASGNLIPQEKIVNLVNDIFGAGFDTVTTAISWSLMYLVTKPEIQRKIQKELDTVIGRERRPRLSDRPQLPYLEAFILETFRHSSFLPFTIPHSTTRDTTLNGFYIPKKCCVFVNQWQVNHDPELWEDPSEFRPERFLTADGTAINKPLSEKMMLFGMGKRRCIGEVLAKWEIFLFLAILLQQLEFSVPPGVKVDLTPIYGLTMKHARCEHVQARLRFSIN
In words: Inhibition of CYP1A2 (unknown origin) using phenacetin as substrate. The data set is classed as ADME.

Data set [9] can be described thus: AUClast in C57 mouse at 5 mg/kg, iv or 20 mg/kg, po. The data set is classed as ADME, organism-based. The note with it: in vivo.
A further data set addresses Cytochrome P450 2C9 (Homo sapiens, UniProt P11712). In words: Inhibition of CYP2C9 (unknown origin) using tolbutamide as substrate. The data set is classed as ADME.
Data set [10] addresses T2, Cytochrome P450 3A4 (Homo sapiens, UniProt P08684). Description: Inhibition of CYP3A4 (unknown origin) using testosterone as substrate. The data set is classed as ADME.
A short description of data set [11]: Oral bioavailability in Sprague-Dawley rat at 10 mg/kg. The data set is classed as ADME, organism-based. The conditions noted are these: in vivo.
A short description of data set [12]: Cmax in dog at 2 mg/kg, iv or 10 mg/kg, po. The data set is classed as ADME, organism-based, Canis lupus familiaris. The conditions noted are these: in vivo.
Data set [13] addresses T2, Cytochrome P450 3A4. In words: Inhibition of CYP3A4 (unknown origin) using midazolam as substrate. The data set is classed as ADME.
Data set [14] in a line: Volume of distribution at steady state in C57 mouse at 5 mg/kg, iv or 20 mg/kg, po. The data set is classed as ADME, organism-based. The conditions noted are these: in vivo, read-out: Vdss.
A further data set addresses Cytochrome P450 2D6 (Homo sapiens, UniProt P10635). In words: Inhibition of CYP2D6 (unknown origin) using dextromethorphan as substrate. The data set is classed as ADME.
Data set [15] can be described thus: Clearance in Sprague-Dawley rat at 2 mg/kg, iv or 10 mg/kg, po. The note with it: in vivo. The data set is classed as ADME, organism-based.
The nature of data set [16]: Oral bioavailability in C57 mouse at 20 mg/kg. The data set is classed as ADME, organism-based. The conditions noted are these: in vivo.
Data set [17] in a line: Oral bioavailability in dog at 10 mg/kg. The data set is classed as ADME, organism-based, Canis lupus familiaris. The note with it: in vivo.
A short description of data set [18]: Half life in Sprague-Dawley rat at 2 mg/kg, iv. The data set is classed as ADME, organism-based. The note with it: in vivo.
In data set [19] the test system is Canis familiaris. Description: Antidiabetic activity in Beagle dog assessed as reduction in blood glucose AUC at 10 mg/kg, po administered via gavage as single dose 90 mins prior to glucagon challenge by glucometer analysis. The data set is classed as functional, organism-based. The conditions noted are these: Canis lupus familiaris.
Data set [20] in a line: Half life in dog at 2 mg/kg, iv. The data set is classed as ADME, organism-based, Canis lupus familiaris. The conditions noted are these: in vivo.
Data set [21] is described as follows: Cmax in C57 mouse at 5 mg/kg, iv or 20 mg/kg, po. The data set is classed as ADME, organism-based. The conditions noted are these: in vivo.
The nature of data set [22]: Volume of distribution at steady state in dog at 2 mg/kg, iv or 10 mg/kg, po. The data set is classed as ADME, organism-based, Canis lupus familiaris. The conditions noted are these: in vivo, read-out: Vdss.
The subject of data set [23] is Canis familiaris. In words: Antidiabetic activity in Beagle dog assessed as reduction in blood glucose AUC administered orally via gavage as single dose 90 mins prior to glucagon challenge by glucometer analysis. The data set is classed as functional, organism-based. The conditions noted are these: Canis lupus familiaris.
Data set [24] is described as follows: Volume of distribution at steady state in Sprague-Dawley rat at 2 mg/kg, iv or 10 mg/kg, po. The data set is classed as ADME, organism-based. The note with it: in vivo, read-out: Vdss.
In another data set the target is Cytochrome P450 2C19 (Homo sapiens, UniProt P33261). In words: Inhibition of CYP2C19 (unknown origin) using S-Mephenytoin as substrate. The data set is classed as ADME.
A short description of data set [25]: Cmax in Sprague-Dawley rat at 2 mg/kg, iv or 10 mg/kg, po. The data set is classed as ADME, organism-based. The note with it: in vivo.
The nature of data set [26]: Clearance in dog at 2 mg/kg, iv or 10 mg/kg, po. The data set is classed as ADME, organism-based, Canis lupus familiaris. The note with it: in vivo.
The nature of data set [27]: Clearance in C57 mouse at 5 mg/kg, iv or 20 mg/kg, po. The data set is classed as ADME, organism-based. The note with it: in vivo.
The nature of data set [28]: Half life in C57 mouse at 5 mg/kg, iv. The data set is classed as ADME, organism-based. The conditions noted are these: in vivo.
A short description of data set [29]: Half life in Sprague-Dawley rat at 10 mg/kg, po. The data set is classed as ADME, organism-based. The conditions noted are these: in vivo.
A short description of data set [30]: Half life in dog at 10 mg/kg, po. The data set is classed as ADME, organism-based, Canis lupus familiaris. The conditions noted are these: in vivo.
Data set [31] is described as follows: AUClast in dog at 2 mg/kg, iv or 10 mg/kg, po. The conditions noted are these: in vivo. The data set is classed as ADME, organism-based, Canis lupus familiaris.
Data set [32] can be described thus: Antagonist activity at GCGR in dog hepatocytes assessed as inhibition of glucagon-induced cAMP by LANCE TR-FRET assay. The data set is classed as cell-based, Canis lupus familiaris.

T2 sequence (P08684 whole entry): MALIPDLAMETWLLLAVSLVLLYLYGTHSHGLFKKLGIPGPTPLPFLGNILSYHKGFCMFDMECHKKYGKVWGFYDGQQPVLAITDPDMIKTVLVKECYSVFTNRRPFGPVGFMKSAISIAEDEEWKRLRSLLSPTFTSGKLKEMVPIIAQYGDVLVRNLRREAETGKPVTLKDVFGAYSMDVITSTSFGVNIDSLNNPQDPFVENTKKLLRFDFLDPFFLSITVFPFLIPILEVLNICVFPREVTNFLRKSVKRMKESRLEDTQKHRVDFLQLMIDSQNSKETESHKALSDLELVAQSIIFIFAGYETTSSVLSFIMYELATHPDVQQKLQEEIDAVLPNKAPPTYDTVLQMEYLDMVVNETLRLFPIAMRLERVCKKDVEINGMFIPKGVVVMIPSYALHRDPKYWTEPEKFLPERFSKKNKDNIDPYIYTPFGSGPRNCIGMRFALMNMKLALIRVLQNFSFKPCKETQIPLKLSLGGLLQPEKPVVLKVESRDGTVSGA
Chain of Glucagon receptor (P47871 whole entry): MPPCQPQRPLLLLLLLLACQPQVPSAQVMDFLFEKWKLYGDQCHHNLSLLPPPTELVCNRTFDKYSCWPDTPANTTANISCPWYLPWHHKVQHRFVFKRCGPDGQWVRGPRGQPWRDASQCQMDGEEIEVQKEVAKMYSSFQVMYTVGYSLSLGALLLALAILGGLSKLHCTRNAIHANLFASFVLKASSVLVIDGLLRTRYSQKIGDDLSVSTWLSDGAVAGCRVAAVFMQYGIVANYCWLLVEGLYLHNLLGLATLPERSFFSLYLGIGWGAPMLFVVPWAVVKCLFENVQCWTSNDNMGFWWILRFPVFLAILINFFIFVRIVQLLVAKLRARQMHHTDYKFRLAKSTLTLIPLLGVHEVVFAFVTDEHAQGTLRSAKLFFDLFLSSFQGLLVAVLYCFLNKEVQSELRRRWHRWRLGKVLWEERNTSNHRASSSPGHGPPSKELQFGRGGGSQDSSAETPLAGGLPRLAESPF
Chain of Cytochrome P450 2C19 (P33261 whole entry): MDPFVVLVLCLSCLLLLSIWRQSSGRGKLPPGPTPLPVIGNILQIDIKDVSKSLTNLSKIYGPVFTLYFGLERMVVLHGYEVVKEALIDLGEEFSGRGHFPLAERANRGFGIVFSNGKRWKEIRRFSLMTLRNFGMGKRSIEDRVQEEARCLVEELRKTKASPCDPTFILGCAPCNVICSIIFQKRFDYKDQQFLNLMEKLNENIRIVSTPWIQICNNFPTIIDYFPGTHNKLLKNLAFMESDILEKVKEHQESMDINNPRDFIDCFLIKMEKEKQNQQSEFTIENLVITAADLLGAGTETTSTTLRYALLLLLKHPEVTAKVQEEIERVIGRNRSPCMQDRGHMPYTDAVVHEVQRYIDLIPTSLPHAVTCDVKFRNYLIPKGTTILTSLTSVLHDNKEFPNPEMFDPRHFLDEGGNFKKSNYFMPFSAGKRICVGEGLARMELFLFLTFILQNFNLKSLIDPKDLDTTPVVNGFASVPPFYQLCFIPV
Chain of Cytochrome P450 2C9 (P11712 whole entry): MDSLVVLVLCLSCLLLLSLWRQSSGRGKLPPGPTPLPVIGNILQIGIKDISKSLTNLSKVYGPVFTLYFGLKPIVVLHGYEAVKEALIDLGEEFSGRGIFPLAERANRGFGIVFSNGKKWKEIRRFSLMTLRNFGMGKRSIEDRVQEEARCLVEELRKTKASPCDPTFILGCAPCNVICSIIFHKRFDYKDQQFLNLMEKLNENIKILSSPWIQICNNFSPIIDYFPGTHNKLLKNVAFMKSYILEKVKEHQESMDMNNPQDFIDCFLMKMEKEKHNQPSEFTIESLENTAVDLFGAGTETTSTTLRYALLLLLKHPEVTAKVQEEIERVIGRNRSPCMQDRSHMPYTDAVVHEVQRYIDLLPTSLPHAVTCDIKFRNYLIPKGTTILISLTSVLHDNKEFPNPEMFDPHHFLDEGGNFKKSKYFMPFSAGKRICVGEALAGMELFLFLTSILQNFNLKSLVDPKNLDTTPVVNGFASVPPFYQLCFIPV
Chain of Cytochrome P450 2D6 (P10635 whole entry): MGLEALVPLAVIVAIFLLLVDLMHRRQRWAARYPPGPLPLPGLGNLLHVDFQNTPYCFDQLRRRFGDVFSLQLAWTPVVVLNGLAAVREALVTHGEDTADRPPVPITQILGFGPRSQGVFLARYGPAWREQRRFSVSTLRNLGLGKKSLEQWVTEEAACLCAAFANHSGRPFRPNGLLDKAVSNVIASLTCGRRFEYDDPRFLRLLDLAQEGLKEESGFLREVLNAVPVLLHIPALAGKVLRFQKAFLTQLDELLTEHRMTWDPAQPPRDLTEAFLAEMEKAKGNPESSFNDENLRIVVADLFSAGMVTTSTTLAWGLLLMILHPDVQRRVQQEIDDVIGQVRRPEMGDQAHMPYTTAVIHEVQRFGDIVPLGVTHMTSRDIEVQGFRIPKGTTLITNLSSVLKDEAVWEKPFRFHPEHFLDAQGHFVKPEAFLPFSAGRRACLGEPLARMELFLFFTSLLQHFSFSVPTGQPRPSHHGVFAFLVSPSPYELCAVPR

Consider `COc1c(-c2ccc(C(F)(F)F)cc2C)ccc2c1cnn2[C@@H](CC(C)C)c1ccc(C(=O)NCCC(=O)O)cc1`, for which the Ratio Ki on Glucagon receptor was 84. Besides, the remaining at 10 min, 1 µM in data set [1] worked out at 95%; in data set [2], 81%; in data set [3], 69%; in data set [4], 83%.

Consider `Cc1cc2c(cnn2[C@@H](CC(C)C)c2ccc(C(=O)NCCC(=O)O)cc2)cc1-c1ccc(C(F)(F)F)cc1Cl`, for which the half-life in data set [5] is 9.1 h; in data set [18] it was 3.6 h; in data set [20] it was 16 h; in data set [28], 7.8 h; in data set [29] it was 7.1 h; in [30], 18.9 h. For the same compound, the fraction unbound at 1 µM in data set [6] was determined as 0.0001. Moreover, the inhibition entry in the data set with Canis familiaris [7] and in the data set with Canis familiaris [19] was “Active” throughout. Moreover, the values for the AUC(0-t) in data set [8], in data set [9] and in data set [31] were 5.6 µM·h, 254 µM·h and 544 µM·h, respectively. Besides, the IC50 against Cytochrome P450 1A2, at Cytochrome P450 2C9, against Cytochrome P450 3A4 [10], against Cytochrome P450 3A4 [13], on Cytochrome P450 2D6 and against Cytochrome P450 2C19 was over 10 µM in each case. Besides, the bioavailability was 35.4% in data set [11], 121% in data set [16] and 57.3% in data set [17]. Also, the Cmax in data set [12] stood at 34.1 µM; in data set [21], 15.6 µM; in [25], 0.5 µM. In addition, the Vd is 1.45 L/kg in data set [14], 0.27 L/kg in [22] and 3.32 L/kg in data set [24]. Moreover, the remaining at 10 min, 1 µM in data set [1] stood at 62%; in data set [2] it was 67%; in data set [3], 65%; in data set [4], 99%. Moreover, the clearance in [15] was found to be 18.7 mL/min/kg; in data set [26], 0.21 mL/min/kg; in data set [27], 2.47 mL/min/kg. For the same compound, in the data set on Canis familiaris [23], the inhibition entry is “Dose-dependent effect”. Further, in data set [32], the Ki is 0.02 µM.
